These antisense oligonucleotides have a phosphorothioate backbone; sugars and methylation of C are not fully specified. A value given as a limit tells only on which side of the number the result lay.
Also: test concentration or dose not given here.

The first series concerns the target NSMAF. Particulars: ASO.
As for GCCGTGCCTCCTTTTGTA, the remaining target (mRNA or protein) (fraction of control) was 0.47. GGCTCTATGCTGTTCAAA: the remaining target (mRNA or protein) (fraction of control) is 0.39. GGCTGGGATATTGAATCT showed a remaining target (mRNA or protein) (fraction of control) of 0.72.

GTCTCCACAACATCTTCC: the remaining target (mRNA or protein) (fraction of control) was 0.86.

GTGATTCCAGTAACTGCT yielded a remaining target (mRNA or protein) (fraction of control) of 0.36. In turn, TACACTGACATCATGTTC had a remaining target (mRNA or protein) (fraction of control) of 0.43. Same read-out and setting: to TATGACAGTGGCATCTCC belongs 0.65; to TCAAGGCAGGATGCTCTG, 0.23. Regarding TGGAAACACAGGGTACTG, the remaining target (mRNA or protein) (fraction of control) amounted to 0.37. For the sequence TGTCAGTAGTCTCTCCAG, the remaining target (mRNA or protein) (fraction of control) came to 0.25. Still for that read-out and setting: to TGTGTCCGTGATGCACAC belongs 0.24; to TGTGTGGCCCTGTATTCT, 0.38.

As to TGTTGAACATTCTATCTG, the remaining target (mRNA or protein) (fraction of control) came out at 0.79. Still for that read-out and setting: to TTAAAATCCGTTGCACCA belongs 0.55. On the same count and under the same terms, the value for TTCCATGTGCAGCTTTTC was 0.34; that for TTTAGGTAGATGTCGGAA was 0.52; that for TTTCCTTTCATGGTGACT was 0.43. Consider TTTGTGAAGTGTCTATTG, for which the remaining target (mRNA or protein) (fraction of control) worked out at 0.51.

The target of a further series is ABCB1. The conditions noted are these: ASO.
As for AAAAGTTCTTCTTTGCTGCT, the remaining target (mRNA or protein) (fraction of control) worked out at 0.92. For the sequence ACTGACAGTTGGTTTCTTT, the remaining target (mRNA or protein) (fraction of control) was found to be 0.84. The sequence ACTTTTATTGTTCAGTTTAAA registered a remaining target (mRNA or protein) (fraction of control) of 0.97. Still for that read-out and setting: to AGTTCTTCTTTGCTGCTCCA belongs 0.7; to ATACTGACAGTTGGTTTCT, 0.65. The sequence CATCCCGACCTCGCGCTCCT showed a remaining target (mRNA or protein) (fraction of control) of 0. Consider CCCGACCTCGCGCTCCTTGG, for which the remaining target (mRNA or protein) (fraction of control) was 0.15. As for CGCGTCCTTGGAACGGCCAC, the remaining target (mRNA or protein) (fraction of control) worked out at 0.15. Same read-out and setting: the value for CGGTCCCCTTCAAGATCCAT was 0; that for CGTCCTTGGAACGGCCACCA was 0.18.

Regarding GACCTCGCGCTCCTTGGAAC, the remaining target (mRNA or protein) (fraction of control) came out at 0.17.

As to GAGCTTGGAAGAGCCGCTACT, the remaining target (mRNA or protein) (fraction of control) came out at 0.54. TACTCCGACTTTAGTGGAAA had a remaining target (mRNA or protein) (fraction of control) of 0.84. On to TCCCCTTCAAGATCCATCCC, for which the remaining target (mRNA or protein) (fraction of control) is 0.2. The same measure, in the same setting: the value for TCCGACTTTAGTGGAAAGAC was 0.9. On the same count and under the same terms, to TCTTCTTTGCTCCTCCATTG belongs 0.67; to TGACAGTTGGTTTCTTTCC, 0.85. The same measure, in the same setting: the value for TTGAGCTTGGAAGAGCCGCTA was 0.54.

In the next series the target is RAF1. The conditions noted are these: ASO.
ACCATCAACATCCACTTGCG had a remaining target (mRNA or protein) (fraction of control) of at least 1.

Turning to ATTCTTAAACCTGAGGGAGC, the remaining target (mRNA or protein) (fraction of control) was at least 1. Sequence CAAGAAAACCTGTATTCCTG registered a remaining target (mRNA or protein) (fraction of control) of at least 1. CAGCACTGCAAATGGCTTCC gave a remaining target (mRNA or protein) (fraction of control) of 0.8. Turning to CCCTGTATGTGCTCCATTGA, the remaining target (mRNA or protein) (fraction of control) was found to be 0.38.

As to CCTGCTGGCTTCTCCTCCTC, the remaining target (mRNA or protein) (fraction of control) came out at 0.92. The same measure, in the same setting: to CGCTCCTCCTCCCCGCGGCG belongs 0.35; to CGGGAGGCGGTCACATTCGG, 0.25. The same measure, in the same setting: to CTCGCCCGCTCCTCCTCCCC belongs at least 1; to CTGAGAGGGCTGAGATGCGG, at least 1; to CTGATTTCCAAAATCCCATG, 0.26. On to CTGGCTTCTCCTCCTCCCCT, for which the remaining target (mRNA or protein) (fraction of control) worked out at 0.95. Still for that read-out and setting: the value for CTGGGCTGTTTGGTGCCTTA was 0.8; that for GATGCAGCTTAAACAATTCT was 0.99; that for GCCGAGTGCCTTGCCTGGAA was 0.98. GCCGCCCCAACGTCCTGTCG: the remaining target (mRNA or protein) (fraction of control) is 0.42. Still for that read-out and setting: the value for GCTCCATTGATGCAGCTTGA was 0.63; that for GCTCCTGGAAGACAAAATTC was 0.82; that for GGTGAGGGAGCGGGAGGCGG was 0.98. Still for that read-out and setting: the value for GGTGCAAAGTCAACTAGAAG was 0.88; that for GTCTGGCGCTGCACCACTCT was 0.35. Turning to TCAGGGCTGGACTGCCTGCT, the remaining target (mRNA or protein) (fraction of control) is 0.52. In turn, TCCCGCCTGTGACATGCATT showed a remaining target (mRNA or protein) (fraction of control) of 0.05.

TCCTCCTCCCCGCGGCGGGT yielded a remaining target (mRNA or protein) (fraction of control) of 0.95. The sequence TCTGGCGCTGCACCACTCTC came in with a remaining target (mRNA or protein) (fraction of control) of 0.25.

TGAAGGTGAGCTGGAGCCAT: the remaining target (mRNA or protein) (fraction of control) is at least 1.

TGTAGCCAACAGCTGGGGCT: the remaining target (mRNA or protein) (fraction of control) was 0.96. On the same count and under the same terms, to TGTGACTAGAGAAACAAGGC belongs 0.68. Same read-out and setting: the value for TTAAAATAACATAATTGAGG was 0.93; that for TTCGGCGGCAGCTTCTCGCC was 0.37; that for TTCTCCTCCTCCCCTGGCAG was 0.8. The sequence TTCTCGCCCGCTCCTCCTCC yielded a remaining target (mRNA or protein) (fraction of control) of 0.65. On the same count and under the same terms, to TTGAGCATGGGGAATGTGGG belongs 0.63; to TTGTCAGGTGCAATAAAAAC, 0.88.

The target of a further series is Agtr1a (rat). Particulars: ASO.
Turning to AACAGAGGGTTCAGGCAGTT, the remaining target (mRNA or protein) (fraction of control) is 0.29. Same read-out and setting: the value for AAGGGTATAGCTGGTGAGAAT was 0.39. The same measure, in the same setting: the value for ACACGTGTGAAGGAACACAC was 0.51; that for AGAAGAGTTAAGGGCCATTT was 0.46; that for AGACACGTGTGAAGGAACAC was 0.5. The same measure, in the same setting: the value for AGAGGGTTCAGGCAGTTGTT was 0.3; that for AGCGTCGAATTCCGAGACTC was 0.29; that for ATAGCTGGTGAGAATGATAAG was 0.44. Turning to ATGCGGTCGATGCTGAGACA, the remaining target (mRNA or protein) (fraction of control) came to 0.75. On to CAGCAGAAGAGTTAAGGGCC, for which the remaining target (mRNA or protein) (fraction of control) was determined as 0.37. Consider CTGGCGTAGAGGTTGAAGCT, for which the remaining target (mRNA or protein) (fraction of control) is 0.41. On the same count and under the same terms, to GATGGTGATGGGCATGGCAG belongs 0.32; to GCAGAAGAGTTAAGGGCCAT, 0.32. Still for that read-out and setting: the value for GCGGTCGATGCTGAGACACG was 0.35. Sequence GGATGCGGTCGATGCTGAGA had a remaining target (mRNA or protein) (fraction of control) of 0.39. As for GGCGTAGAGGTTGAAGCTCA, the remaining target (mRNA or protein) (fraction of control) is 0.27. The same measure, in the same setting: to GGGAGCGTCGAATTCCGAGA belongs 0.21; to GGGTTCAGGCAGTTGTTAAA, 0.29; to GGTATAGCTGGTGAGAATGAT, 0.46. GGTCGATGCTGAGACACGTG had a remaining target (mRNA or protein) (fraction of control) of 0.49.

The sequence GTCGAATTCCGAGACTCATA yielded a remaining target (mRNA or protein) (fraction of control) of 0.25. GTGATGGGCATGGCAGTGTC displayed a remaining target (mRNA or protein) (fraction of control) of 0.29. TAAAGGGTATAGCTGGTGAGA gave a remaining target (mRNA or protein) (fraction of control) of 0.35. Same read-out and setting: the value for TGGTGATGGGCATGGCAGTG was 0.21; that for TTCAGGCAGTTGTTAAAATA was 0.86.

Another series has as its target PRKCA. The conditions noted are these: ASO.
For AAAACGTCAGCCATGGTCCC, the remaining target (mRNA or protein) (fraction of control) came to 0.39. On the same count and under the same terms, to AAGAGAGAGACCCTGAACAG belongs 0.62; to AGCCGTGGCCTTAAAATTTT, 0.84.

For AGTCGGTGCAGTGGCTGGAG, the remaining target (mRNA or protein) (fraction of control) turned out to be 0.88. On the same count and under the same terms, the value for ATGGGGTGCACAAACTGGGG was 0.94. With ATTTTCAGGCCTCCATATGG, the remaining target (mRNA or protein) (fraction of control) turned out to be 0.82. In turn, CACTGCGGGGAGGGCTGGGG displayed a remaining target (mRNA or protein) (fraction of control) of at least 1. CCCCAACCACCTCTTGCTCC came in with a remaining target (mRNA or protein) (fraction of control) of 0.39. The sequence CCCGGGAAAACGTCAGCCAT showed a remaining target (mRNA or protein) (fraction of control) of 0.52. The sequence CGCCGTGGAGTCGTTGCCCG came in with a remaining target (mRNA or protein) (fraction of control) of 0.54. Same read-out and setting: the value for CTGCCTCAGCGCCCCTTTGC was 0.47; that for GAGACCCTGAACAGTTGATC was 0.61. GATAATGTTCTTGGTTGTAA: the remaining target (mRNA or protein) (fraction of control) was 0.85. On the same count and under the same terms, to GCAGAGGCTGGGGACATTGA belongs 0.81. GGATTCACTTCCACTGCGGG had a remaining target (mRNA or protein) (fraction of control) of 0.82. GGGCTGGGGAGGTGTTTGTT gave a remaining target (mRNA or protein) (fraction of control) of 0.95. Still for that read-out and setting: the value for GTCAGCCATGGTCCCCCCCC was 0.46. GTTCTCGCTGGTGAGTTTCA: the remaining target (mRNA or protein) (fraction of control) was found to be 0.52. Same read-out and setting: to TCAAATGGAGGCTGCCCGGC belongs 0.66; to TGGAATCAGACACAAGCCGT, 0.89.

The record behind these values is the OligoGym collection.
